Where only a bound is given, the exact number is not on record here.

In series [1] the target is T1, human A1 adenosine receptors (Homo sapiens, UniProt P30542).
T1 construct: expressed in transfected cells; host or cells: CHO cells (membranes)
T1 sequence (P30542 1-326): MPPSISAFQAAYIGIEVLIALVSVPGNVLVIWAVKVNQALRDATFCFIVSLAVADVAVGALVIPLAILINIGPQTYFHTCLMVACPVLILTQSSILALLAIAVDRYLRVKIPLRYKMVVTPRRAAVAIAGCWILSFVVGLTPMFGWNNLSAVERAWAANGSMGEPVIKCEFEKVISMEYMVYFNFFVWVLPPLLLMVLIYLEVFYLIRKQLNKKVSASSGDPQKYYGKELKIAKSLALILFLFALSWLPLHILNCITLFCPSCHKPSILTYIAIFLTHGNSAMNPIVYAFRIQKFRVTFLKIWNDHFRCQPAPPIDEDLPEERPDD
Kind of series: Displacement of [3H]DPCPX binding at human A1 adenosine receptors expressed in CHO cells. To be noted: [3H]DPCPX displacement, n = 3-6, geometric mean (95% confidence limits), read-out: Ki hA1. The protocol: The human adenosine receptors have been transfected in CHO cells according with the method previously described by Klotz et al. (Naunyn-Schmied. Arch Pharm. 1998, 357: 1-9). Briefly, the cells are grown adherently and maintained in Dulbecco's Modified Eagles Medium with nutrient mixture F12 (DMEM/F12) without nucleosides, containing 10% fetal calf serum, penicillin (100 U/mL), streptomycin (100 μg/mL), L-glutamine (2 mM) and Geneticin (G418, 0.2 mg/ml) at 37° C. in 5% CO2/95% air. For membrane preparation the culture medium is removed and the cells are washed with phosphate-buffered saline and scraped off T75 flasks in ice-cold hypo tonic buffer (5 mM Tris HCl, 1 mM EDTA, pH 7.4). The cell suspension is homogenized with Polytron, the homogenate is spun for 10 min at 1000×g and the supernatant is then centrifuged for 30 min at 100,000×g. The membrane pellet is suspended in 50 mM Tris HCl buffer (pH 7.4) for A1 adenosine receptors, in 50 mM Tris HCl, 10 mM MgCl2 (pH 7.4) for A2A adenosine receptors, in 50 mM Tris HCl, 10 mM MgCl2, 1 mM EDTA (pH 7.4) for A2B and A3 adenosine receptors.
All new synthesized compounds have been tested to evaluate their affinity to human A1, A2A, A2B and A3 adenosine receptors. Displacement experiments of [^3H]-DPCPX to CHO cells transfected with the human recombinant A1 adenosine receptors are performed for 120 min at 25° C. incubating diluted membranes (50 μg of protein/assay) and at least 6-8 different concentrations of examined antagonists (Varani et al., Mol. Pharmacol., 2000, 57: 968-975). Non-specific binding is determined in the presence of 10 μM of CHA and this is always ≦10% of the total binding. Binding of [^3H]-ZM 241385 to CHO cells transfected with the human recombinant A2A adenosine receptors is performed using a suspension of membranes (50 μg of protein/assay) and at least 6-8 different concentrations of studied antagonists for an incubation time of 60 min at 4° C. Non-specific binding is determined in the presence of 1 μM ZM 241385 and is about 20% of total binding. Competition binding experiments of [^3H]-MRE 2029F20 to CHO cells transfected with the human recombinant A2B adenosine receptors are carried out incubating for 120 min at 4° C. diluted membranes (50 μg of protein/assay) and at least 6-8 different concentrations of examined compounds. Non-specific binding is defined as binding in the presence of 1 μM MRE 3029F20 and is about 25% of total binding. Competition binding experiments of [^3H]-MRE 3008F20 to CHO cells transfected with the human recombinant A3 adenosine receptors^5 are carried out incubating for 120 min at 4° C. diluted membranes (50 μg of protein/assay) and at least 6-8 different concentrations of examined ligands. Non-specific binding is defined as binding in the presence of 1 μM MRE 3008F20 and is about 25% of total binding. Bound and free radioactivity are separated by filtering the assay mixture through Whatman GF/B glass fiber filters using a Micro-Mate 196 cell harvester (Packard Instrument Co.). The filter bound radioactivity is counted on a Top Count (efficiency 57%) with Micro-Scint 20.
The protein concentration is determined according to a Bio-Rad method (Bradford, Anal Biochem. 1976, 72: 248-254) with bovine albumin as a standard reference. Inhibitory binding constant, Ki, values are calculated from those of IC50 according to Cheng & Prusoff equation (Biochem. Pharmacol 1973, 22: 3099-3108): Ki=IC50/(1+[C*]/KD*) where [C*] is the concentration of the radioligand and KD* its dissociation constant. A weighted non linear least-squares curve fitting program LIGAND (Munson et al., Anal. Biochem 1980, 107: 220-239) is used for computer analysis of inhibition experiments Data are expressed as geometric mean with 95% confidence limits in parentheses. Examples of Animal Models
(In a radioligand displacement assay an active substance lowers the binding of a labelled ligand.)

Take `CCCn1c(=O)c2[nH]c(-c3cc(C)n(CC(=O)Nc4ccccc4)n3)nc2n(CCC)c1=O` [Example 1, 2-[3-(2,6-Dioxo-1,3-dipropyl-2,3,6,7-tetrahydro-1H-purin-8-yl)-5-methyl-pyrazol-1-yl]-N-phenyl-acetamide]: the melting point lay in the range of 255 to 257 °C. Also, the Ki in series [1] was 350 nM.
On the same counts, the results for `CCCn1c(=O)c2[nH]c(-c3cc(C)n(CC(=O)Nc4ccc(I)cc4)n3)nc2n(CCC)c1=O` [Example 2, 2-[3-(2,6-Dioxo-1,3-dipropyl-2,3,6,7-tetrahydro-1H-purin-8-yl)-5-methyl-pyrazol-1-yl]-N-(4-iodophenyl)-acetamide] are 286 to 289 °C and > 1000 nM.
With `CCCn1c(=O)c2[nH]c(-c3cc(C)n(CC(=O)Nc4ccc(F)cc4)n3)nc2n(CCC)c1=O` [Example 5, 2-[3-(2,6-Dioxo-1,3-dipropyl-2,3,6,7-tetrahydro-1H-purin-8-yl)-5-methyl-pyrazol-1-yl]-N-(4-fluoro-phenyl)-acetamide], the melting point was 205 to 207 °C. For the same compound, the Ki in series [1] was 500 nM.
On the same counts, the results for `CCCn1c(=O)c2[nH]c(-c3cc(C)n(CC(=O)Nc4ccc(OC)cc4)n3)nc2n(CCC)c1=O` [Example 6, 2-[3-(2,6-Dioxo-1,3-dipropyl-2,3,6,7-tetrahydro-1H-purin-8-yl)-5-methyl-pyrazol-1-yl]-N-(4-methoxyphenyl)-acetamide] are 293 to 296 °C and > 1000 nM.
With `CCCn1c(=O)c2[nH]c(-c3cc(C)n(CC(=O)Nc4ccc(C)c(C)c4)n3)nc2n(CCC)c1=O` [Example 7, 2-[3-(2,6-Dioxo-1,3-dipropyl-2,3,6,7-tetrahydro-1H-purin-8-yl)-5-methyl-pyrazol-1-yl]-N-(3,4-dimethylphenyl)-acetamide], the melting point was in the range of 261 to 265 °C. Further, the inhibition constant Ki in series [1] is > 1000 nM.
On the same counts, the results for `CCCn1c(=O)c2[nH]c(-c3cc(C)n(CC(=O)Nc4ccc(OC)c(OC)c4)n3)nc2n(CCC)c1=O` [Example 8, 2-[3-(2,6-Dioxo-1,3-dipropyl-2,3,6,7-tetrahydro-1H-purin-8-yl)-5-methyl-pyrazol-1-yl]-N-(3,4-dimethoxyphenyl)-acetamide] are 285 to 290 °C and > 1000 nM.
Taken in the same sequence, the figures for `CCCn1c(=O)c2[nH]c(-c3ccn(CC(=O)Nc4ccc(Cl)cc4)n3)nc2n(CCC)c1=O` [Example 10, 2-[3-(2,6-Dioxo-1,3-dipropyl-2,3,6,7-tetrahydro-1H-purin-8-yl)-pyrazol-1-yl]-N-(4-chloro-phenyl)-acetamide] were 283 to 285 °C and 140 nM.
Taken in the same sequence, the figures for `CCCn1c(=O)c2[nH]c(-c3cc(C)n(CC(=O)Nc4ccc(C(C)CC)cc4)n3)nc2n(CCC)c1=O` (stereo not drawn) [Example 12, 2-[3-(2,6-Dioxo-1,3-dipropyl-2,3,6,7-tetrahydro-1H-purin-8-yl)-5-methyl-pyrazol-1-yl]-N-(4-sec-butylphenyl)-acetamide] were 268 to 271 °C and > 1000 nM.
`CCCn1c(=O)c2[nH]c(-c3cc(C)n(CC(=O)Nc4cccc(OC)c4)n3)nc2n(CCC)c1=O` [Example 14, 2-[3-(2,6-Dioxo-1,3-dipropyl-2,3,6,7-tetrahydro-1H-purin-8-yl)-5-methyl-pyrazol-1-yl]-N-(3-methoxylphenyl)-acetamide] had a melting point of 274 to 277 °C. In addition, the Ki in series [1] was found to be 480 nM.
Take `CCCn1c(=O)c2[nH]c(-c3cc(C)n(CC(=O)Nc4cccc(Cl)c4)n3)nc2n(CCC)c1=O` [Example 15, 2-[3-(2,6-Dioxo-1,3-dipropyl-2,3,6,7-tetrahydro-1H-purin-8-yl)-5-methyl-pyrazol-1-yl]-N-(3-chlorophenyl)-acetamide]: the melting point was in the range of 304 to 307 °C. Besides, in series [1], the Ki amounted to 675 nM.
In turn, `CCCn1c(=O)c2[nH]c(-c3cc(C)n(CC(=O)Nc4ccc(Cl)c(Cl)c4)n3)nc2n(CCC)c1=O` [Example 16, 2-[3-(2,6-Dioxo-1,3-dipropyl-2,3,6,7-tetrahydro-1H-purin-8-yl)-5-methyl-pyrazol-1-yl]-N-(3,4-dichlorophenyl)-acetamide] yielded a melting point of 298 °C. Moreover, the Ki in series [1] is > 1000 nM.
On the same counts, the results for `CCCn1c(=O)c2[nH]c(-c3cc(C)n(CC(=O)Nc4ccc(C)cc4)n3)nc2n(CCC)c1=O` [Example 17, 2-[3-(2,6-Dioxo-1,3-dipropyl-2,3,6,7-tetrahydro-1H-purin-8-yl)-5-methyl-pyrazol-1-yl]-N-p-tolyl-acetamide] are > 300 °C and > 1000 nM.
As for `CCCn1c(=O)c2[nH]c(-c3nn(CC(=O)Nc4ccc(Cl)cc4)c(C)c3Cl)nc2n(CCC)c1=O` [Example 18, 2-[4-Chloro-3-(2,6-dioxo-1,3-dipropyl-2,3,6,7-tetrahydro-1H-purin-8-yl)-5-methyl-pyrazol-1-yl]-N-(4-chlorophenyl)-acetamide], the inhibition constant (Ki) in series [1] was > 1000 nM.
Regarding `CCCn1c(=O)c2[nH]c(-c3nn(CC(=O)Nc4ccc(Cl)cc4)c(C)c3Br)nc2n(CCC)c1=O` [Example 19, 2-[4-Bromo-3-(2,6-dioxo-1,3-dipropyl-2,3,6,7-tetrahydro-1H-purin-8-yl)-5-methyl-pyrazol-1-yl]-N-(4-chlorophenyl)-acetamide], the melting point is 298 to 299 °C. The Ki in series [1] is > 1000 nM.

For orientation: Ki means the equilibrium dissociation constant of an inhibitor or competing ligand from its target. A word on the melting point: it is the temperature of the solid-liquid transition.
